Measured values: patent publication US7317002B2, “Site-specific preparation of polyethylene glycol-GRF conjugates” (Applied Research Systems ARS Holding N.V., priority 1997, dated 2008)
No end group written: not given here.

Assays:
[1] = biological target: T1, human growth hormone releasing factor receptor (hGRF-R) (Homo sapiens, UniProt Q02643); assay: CHO-hGRFR-LUC in vitro assay (luciferase reporter gene assay); type: cell-based; details: DMSO and nicotinamide preparations; FIGS. 5-7
T1 construct: expressed in transfected cells; host or cells: CHO-DUKX (clone CHO-hGRFR-LUC 1-11-20)
T1 sequence (Q02643 23-423): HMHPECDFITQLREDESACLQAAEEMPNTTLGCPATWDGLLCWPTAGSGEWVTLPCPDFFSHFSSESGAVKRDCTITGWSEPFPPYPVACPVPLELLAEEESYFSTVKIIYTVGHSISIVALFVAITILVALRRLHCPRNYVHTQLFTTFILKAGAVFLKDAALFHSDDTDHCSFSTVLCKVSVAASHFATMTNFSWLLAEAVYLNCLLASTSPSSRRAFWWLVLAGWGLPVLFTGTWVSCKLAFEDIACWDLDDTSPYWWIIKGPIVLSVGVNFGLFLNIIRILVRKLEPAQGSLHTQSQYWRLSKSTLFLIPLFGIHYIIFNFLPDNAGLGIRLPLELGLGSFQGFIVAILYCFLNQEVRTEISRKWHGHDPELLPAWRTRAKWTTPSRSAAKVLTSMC
Source text: CHO-hGRFR-LUC in Vitro Assay
CHO-hGRFR-LUC (clone 1-11-20) is a cloned cell line that had been obtained by cotransfection of the pcDNA3-hGRF-R and pTF5-53 LUC vectors into CHO-DUKX cell line.
The plasmid pcDNA3-hGRF-R was constructed by inserting the human growth hormone releasing factor receptor (hGRF-R) cDNA into pcDNA3 expression vector. The Bluescript plasmid containing hGRF-R cDNA was kindly provided by Dr. B. Gaylinn (University of Virginia) the pcDNA3 mammalian expression vector was obtained from Invitrogen. The hGRF-R coding sequence was driven by the human cytomegalovirus (CMV) promoter.
The plasmid pTF5-53LUC was constructed by inserting the c-fos cAMP response element along with its endogenous promoter upstream of the luciferase coding sequence in plasmid poLuc. The cAMP response element and the c-fos promoter were obtained from the plasmid pTF5-53 (described in Fish et al, 1989). The promoterless reporter gene vector (poLuc) with multiple cloning sites upstream of the luciferase coding sequence was obtained from Dr. Brasier (University of Texas, Galveston).
These CHO-DUKX cells obtained by the above co-transfection were routinely grown in MEM alpha medium containing ribonucleosides and deoxyribonucleosides and supplemented with 10% fetal calf serum plus 600 μg/ml geneticin G418 sulfate.
The cells were seeded (40,000 cells/well) in white 96-well plates (Dynatech) and incubated for 16-18 hrs in 200 μl growth medium before the assay.
The next day, the medium was removed and replaced with a medium containing different concentrations of hGRF(1-29) in-house reference standard (Bachem) or different hGRF-PEG conjugates before incubating the plates at 37° C., 5% CO2 for two hours. At the end of incubation, CHO-hGRFR-LUC cells were washed twice with 200 μl of PBS (Sigma) and then lysed by adding 50 μl of a cell culture lyses reagent (Promega) to each well. After a further 15-minute incubation at room temperature, the plates were read in a luminometer (Dynatech) after introducing 150 μl of a luciferase assay reagent (Promega).
As an alternative method, CHO-hGRFR-LUC cells, seeded at 50,000 cells/well, at the end of incubation with different hGRF-PEG conjugates, were washed with PBS, as above discussed. To each well 100 μl PBS containing calcium and magnesium ions was added, prior to addition of 100 μl of Luclite (Packard). After 10 minutes incubation at room temperature, plates were read in luminometer (Lumicount-Packard).
Results were expressed as relative light unit (RLU).

rat pituitary cell = assay: In vitro rat pituitary cell bioassay (GH release); type: cell-based; details: two DMSO preparations; FIGS. 8 and 9
Method: In vitro rat pituitary cell bioassay for hGRF(1-29)
The animals (SPF male Sprague-Dawley rats 200 g, b.w.) were sacrificed by CO2 inhalation and the pituitaries removed. The tissue was finely minced and put into a bottle with the enzyme solution for tissue digestion. The bottle was placed in an incubator at 37° C. for 1 hour.
The digested tissue was recovered and the cells washed twice, counted and adjusted to a concentration of 5×10^5/ml. The cells were plated out in a 48-well plate (200 μl/well) and the plate placed in an incubator for 72 hrs.
After 72 hrs the cells were incubated with different concentrations of hGRF for 4 hours. At the end of the incubation period the supernatants were collected and stored at −80° C.
The GH content in each sample was assayed by a commercial rat GH radioimmunoassay kit.

GH serum levels = assay: In vivo assay: serum GH levels after i.v. injection in male rats; parameters: species or system Sprague-Dawley rats; details: for GH serum levels induced, compared with hGRF1-29: 400 μg i.v., rats, DMSO preparations, FIG. 11A
Method: (§1) SPF adult male Sprague-Dawley rats, 200-250 g b.w, supplied by Charles River, are used after an acclimatisation period of at least 7 days.
(§2) The animal was injected i.v. with hGRF(1-29) (400 μg/rat). A few minutes before blood collection, the animal was anaesthetized (ketamine-xylazine). […] The sample was divided into two aliquots: 1 ml was collected as such and serum was obtained after an incubation period of about 3 hours at 37° C. and subsequent centrifugation; the remaining 1 ml was collected into a vial containing 50 μl of a 4 mg/ml heparin solution, immediately stored on ice and plasma was obtained after centrifugation at 4° C.
(§3) Blood samples were collected at different time points from the injection of the test compound using different animals. In each experimental session a total of three rats for each time point was used.
(§4) Plasma and serum samples were immediately frozen and stored at −20° C.
(§5) GH serum levels were measured by a commercial RIA kit; hGRF plasma levels were measured by a commercial RIA kit for hGRF(1-44).

[2] = cited from earlier work
[3] = Solubility in aqueous buffer; type: physicochemical; details: water solution at neutral or slightly alkaline pH
[4] = In vivo assay: plasma hGRF levels after i.v. injection in male rats; parameters: species or system Sprague-Dawley rats
Method: as §1, §2, §3, §4, §5

## hGRF(3-29) (DAIFTNSYRKVLGQLSARKLLQDIMSR; ends and bridges not checked; UniProt P01286 34-60, looked up, fragment) [Human GRF3-29, two preparations, supplied by Bachem and by ISL, reference compound]
[1]
  biological effect (activity) in the CHO-hGRFR-LUC in vitro assay: did not possess a significant in vitro activity

## [Lys(MPEG5,000—CH2—CO—Nle—CO)^21-hGRF(1-29)—NH2] [GRF-1PEG 1st peak]
Rat pituitary cell
  GH release from rat pituitary cell in vitro (rank of activity): the most active compound
GH serum levels
  GH serum levels induced, compared with hGRF1-29: comparable to those obtained with hGRF1-29
[1]
  biological effect (activity) in the CHO-hGRFR-LUC in vitro assay: more active than the GRF-2PEG and GRF-3PEG

## GRF: peptide secreted by the hypothalamus which promotes the release of growth hormone; exists as 44-, 40-, or 37-amino acid peptide
[2]
  biological half-life: 12 to 30 minutes

## [Lys(MPEG5,000—CH2—CO—Nle—CO)^12,21-hGRF(1-29)—NH2] [GRF-2PEG]
GH serum levels
  GH serum levels induced, compared with hGRF1-29: comparable to those obtained with hGRF1-29

## CC[C@H](C)[C@H](NC(=O)[C@H](C)NC(=O)[C@H](CC(=O)O)NC(=O)[C@H](C)NC(=O)[C@@H](N)Cc1ccc(O)cc1)C(=O)N[C@@H](Cc1ccccc1)C(=O)N[C@H](C(=O)N[C@@H](CC(N)=O)C(=O)N[C@@H](CO)C(=O)N[C@@H](Cc1ccc(O)cc1)C(=O)N[C@@H](CCCNC(=N)N)C(=O)N[C@@H](CCCCN)C(=O)N[C@H](C(=O)N[C@@H](CC(C)C)C(=O)NCC(=O)N[C@@H](CCC(N)=O)C(=O)N[C@@H](CC(C)C)C(=O)N[C@@H](CO)C(=O)N[C@@H](C)C(=O)N[C@@H](CCCNC(=N)N)C(=O)N[C@@H](CCCCN)C(=O)N[C@@H](CC(C)C)C(=O)N[C@@H](CC(C)C)C(=O)N[C@@H](CCC(N)=O)C(=O)N[C@@H](CC(=O)O)C(=O)N[C@H](C(=O)N[C@@H](CCSC)C(=O)N[C@@H](CO)C(=O)N[C@@H](CCCNC(=N)N)C(N)=O)[C@@H](C)CC)C(C)C)[C@@H](C)O [hGRF, hGRF(1-29)—NH2, reference compound]
[3]
  solubility in neutral/alkaline buffer solution: low solubility
GH serum levels; 400 μg/rat i.v., male rats
  time at which serum GH returned to basal levels: 60 min
  time of serum GH peak after i.v. injection: 10 min
[1]
  biological effect (activity) in the CHO-hGRFR-LUC in vitro assay: No difference
[4]; 400 μg/rat i.v., male rats, FIG. 10
  plasma hGRF concentrations up to 60 min: maintained a sustained level
[4]; male, Sprague-Dawley, rat, in vivo, iv, 400 ug/animal
  Tmax: 10 min

## N^α-(PEG5,000—CH2—CO—Nle—CO)[Lys(MPEG5,000—CH2—CO—Nle—CO)^12,21-hGRF(1-29)—NH2] [GRF-3PEG]
Rat pituitary cell
  GH release from rat pituitary cell in vitro (rank of activity): then GRF-3PEG
GH serum levels
  GH serum levels induced, compared with hGRF1-29: lower activity

## [Lys(MPEG5,000—CH2—CO—Nle—CO)^12-hGRF(1-29)—NH2] [GRF-1PEG 2nd peak]
GH serum levels
  GH serum levels induced, compared with hGRF1-29: comparable to those obtained with hGRF1-29
[1]
  biological effect (activity) in the CHO-hGRFR-LUC in vitro assay: more active than the GRF-2PEG and GRF-3PEG
